Experimental data taken from US9521847B2, “Synergistic weed control from applications of pyridine carboxylic acid herbicides and synthetic auxin herbicides and/or auxin transport inhibitors” (Dow AgroSciences LLC, priority 2014, dated 2016).
Values joined by “and” are separate entries in the source; they are usually repeats but may differ in a detail not shown here. Identical values can stand only once. Like-named read-outs stand apart in the source and are kept apart here.

Key:
[1] = tested on: pigweed (AMARE, Amaranthus retroflexus); test: Greenhouse postemergence trial, % visual injury; type: in vivo; conditions: AMARE
[2] = tested on: winter rape (BRSNW, Brassica napus); test: Greenhouse postemergence trial, % visual injury; type: in vivo; conditions: for % visual injury, Obs: BRSNW
[3] = tested on: common lambsquarters (CHEAL, Chenopodium album L.); test: Greenhouse postemergence trial, % visual injury; type: in vivo; conditions: CHEAL
[4] = tested on: kochia (KCHSC, Kochia scoparia); test: Greenhouse postemergence trial, % visual injury; type: in vivo; conditions: for % visual injury, Obs.: Table 61
Procedure: Following the protocol in Example 1, compound 1 and compound 2 were combined with 2,4 D EHE (EC) and applied to kochia (KCHSC, Kochia scoparia) and the phytotoxicity of the herbicidal compositions was measured.
Following the protocol in Example 1, compound 1 (EC) and Compound 2 (SC) were combined with diflufenzopyr and applied to kochia (Kochia scoparia, KCHSC) and the phytotoxicity of the herbicidal composition was measured.

[5] = tested on: velvetleaf (Abutilon theophrasti, ABUTH); test: Greenhouse postemergence trial, % visual injury; type: in vivo; conditions: Abutilon theophrasti, post-emergence, read-out: % visual injury, Obs; for pest or weed control at 5 g/ha / pest or weed control at 10 g/ha: ABUTH
[6] = tested on: nutsedge (Cyperus esculentus, CYPES); test: Greenhouse postemergence trial, % visual injury; type: in vivo; conditions: CYPES
[7] = tested on: wild buckwheat (Polygonum convolvulus, POLCO); test: Greenhouse postemergence trial, % visual injury; type: in vivo
[8] = tested on: grain sorghum (Sorghum vulgare, SORVU); test: Greenhouse postemergence trial, % visual injury; type: in vivo; conditions: SORVU
[9] = tested on: black mustard (Brassica nigra, BRSNI); test: Greenhouse postemergence trial, % visual injury; type: in vivo
[10] = tested on: turnip (Brassica rapa, BRSRR); test: Greenhouse postemergence trial, % visual injury; type: in vivo
[11] = tested on: wild radish (Raphanus raphanistrum, RAPRA); test: Greenhouse postemergence trial, % visual injury; type: in vivo
[12] = tested on: Russian thistle (Salsola iberica, SASKR); test: Greenhouse postemergence trial, % visual injury; type: in vivo; conditions: SASKR
[13] = tested on: wild mustard (Sinapis arvensis, SINAR); test: Greenhouse postemergence trial, % visual injury; type: in vivo; conditions: for % visual injury, Obs: SINAR
[14] = tested on: Indian hedge mustard (Sisymbrium orientale, SSYOR); test: Greenhouse postemergence trial, % visual injury; type: in vivo
[15] = tested on: blackgrass (Alopecurus myosuroides, ALOMY); test: Greenhouse postemergence trial, % visual injury; type: in vivo
[16] = tested on: wild oat (Avena fatua, VEFA); test: Greenhouse postemergence trial, % visual injury; type: in vivo; conditions: AVEFA
[17] = tested on: large crabgrass (Digitaria sanguinalis, DIGSA); test: Greenhouse postemergence trial, % visual injury; type: in vivo; conditions: DIGSA
winter wheat (TRZAW) [18] = conditions: winter wheat (Triticum aestivum), in vivo
maize (ZEAMX) [19] = conditions: maize (Zea mays), in vivo
[20] = tested on: spring rape (Brassica napus, BRSNN); test: Greenhouse postemergence trial, % visual injury; conditions: for % visual injury, Obs: BRSNN
[21] = tested on: poinsettia (Euphorbia heterophylla, EPHHL); test: Greenhouse postemergence trial, % visual injury; conditions: Euphorbia heterophylla, post-emergence
[22] = tested on: wild pansy (Viola tricolor, VIOTR); test: Greenhouse postemergence trial, % visual injury; conditions: for % visual injury, Obs: VIOTR
[23] = tested on: ivyleaf morningglory (Ipomoea hederacea, IPOHE); test: Greenhouse postemergence trial, % visual injury; conditions: Ipomoea, post-emergence
[24] = tested on: sunflower (Helianthus annus, HELAN); test: Greenhouse postemergence trial, % visual injury; type: in vivo; conditions: HELAN; 2,3,5-TIBA 140 g ai/ha
[25] = tested on: Chinese kale (Brassica alboglabra, BRSAG); test: Greenhouse postemergence trial, % visual injury; type: in vivo; conditions: BRSAG; 2,3,5-TIBA 140 g ai/ha
[26] = tested on: brown mustard (Brassica juncea, BRSJU); test: Greenhouse postemergence trial, % visual injury; type: in vivo; conditions: BRSJU; 2,3,5-TIBA 140 g ai/ha
[27] = tested on: Roundup Ready rape (Brassica napus, BRSNN-RR); test: Greenhouse postemergence trial, % visual injury; type: in vivo; conditions: 2,3,5-TIBA 140 g ai/ha
winter wheat (TRZAW) [28] = test: Greenhouse postemergence trial, crop phytotoxicity (% visual injury); conditions: TRZAW; 2,3,5-TIBA 140 g ai/ha
maize (ZEAMX) [29] = test: as above; conditions: ZEAMX; 2,3,5-TIBA 140 g ai/ha
common rice (ORYSA) = test: as above; conditions: ORYSA; 2,3,5-TIBA 140 g ai/ha
[30] = Brassica napus, post-emergence, read-out: % visual injury, Obs

In the case of `Nc1c(F)c(-c2ccc3cc[nH]c3c2F)nc(C(=O)OCc2ccccc2)c1Cl` [compound 2], the “% visual injury, Obs” value ([1]; 5 g ae/ha) is reported as 88% and 65%, the “% visual injury, Obs” value ([1]; 10 g ae/ha) is reported as 100% and 60% and the “% visual injury, Obs” value ([1]; compound 2 (EC) 5 g ae/ha) is reported as 88%. The “% visual injury, Obs” value ([1]; compound 2 (EC) 10 g ae/ha) was 100%, the “% visual injury, Obs” value ([2]; 5 g ae/ha) was 30% and the “% visual injury, Obs” value ([2]; 10 g ae/ha) was 50%. The “% visual injury (Obs)” value ([2]; compound 2 SC 5 g ae/ha) was 50%, the “% visual injury (Obs)” value ([2]; compound 2 SC 10 g ae/ha) was 50% and the “% visual injury, Obs” value ([3]; 5 g ae/ha) was 88%. For the same molecule, the “% visual injury, Obs” value ([3]; 10 g ae/ha) was 99%, the “% visual injury Obs” value ([4]; 8.75 g ae/ha alone, 20-22 d) was 55% and the pest or weed control at 5 g/ha ([4]; Bassia scoparia, post-emergence, KCHSC, 5 g ae/ha, read-out: % visual injury, Obs) was 30%. For the same molecule, the pest or weed control at 10 g/ha ([4]; Bassia scoparia, post-emergence, KCHSC, 10 g ae/ha, read-out: % visual injury, Obs) was 75%, the “% visual injury, Obs.” value ([4]; KCHSC, compound 2 (SC) 8.75 g ae/ha) was 84% and the “% visual injury, Obs.” value ([4]; KCHSC, compound 2 (SC) 17.5 g ae/ha) was 86%. It also gave a pest or weed control at 5 g/ha ([5]; 5 g ae/ha) of 78%, a pest or weed control at 10 g/ha ([5]; 10 g ae/ha) of 95% and a pest or weed control at 5 g/ha ([5]; compound 2 (EC) 5 g ae/ha) of 78%. The pest or weed control at 10 g/ha ([5]; compound 2 (EC) 10 g ae/ha) was 95%, the “% visual injury, Obs” value ([6]; 5 g ae/ha) was 5% and the “% visual injury, Obs” value ([6]; 10 g ae/ha) was 10%. For the same molecule, the “% visual injury, Obs” value ([6]; compound 2 (EC) 5 g ae/ha) was 5%, the “% visual injury, Obs” value ([6]; compound 2 (EC) 10 g ae/ha) was 10% and the “% visual injury (Obs)” value ([7]; compound 2 SC 5 g ae/ha) was 30%. For the same molecule, the “% visual injury (Obs)” value ([7]; compound 2 SC 10 g ae/ha) was 50%, the “% visual injury, Obs” value ([8]; 5 g ae/ha) was 38% and the “% visual injury, Obs” value ([8]; 10 g ae/ha) was 63%. For the same molecule, the “% visual injury (Obs)” value ([9]; compound 2 SC 2.5 g ae/ha) was 30%, the “% visual injury (Obs)” value ([9]; compound 2 SC 5 g ae/ha) was 70% and the “% visual injury (Obs)” value ([10]; compound 2 SC 2.5 g ae/ha) was 23%. The “% visual injury (Obs)” value ([10]; compound 2 SC 5 g ae/ha) was 67%, the “% visual injury (Obs)” value ([11]; compound 2 SC 2.5 g ae/ha) was 17% and the “% visual injury (Obs)” value ([11]; compound 2 SC 5 g ae/ha) was 25%. The “% visual injury, Obs” value ([12]; 5 g ae/ha) was 10%, the “% visual injury, Obs” value ([12]; 10 g ae/ha) was 10% and the “% visual injury, Obs” value ([13]; 5 g ae/ha) was 95%. For the same molecule, the “% visual injury, Obs” value ([13]; 10 g ae/ha) was 100%, the “% visual injury (Obs)” value ([13]; compound 2 SC 2.5 g ae/ha) was 87% and the “% visual injury (Obs)” value ([13]; compound 2 SC 5 g ae/ha) was 100% and 94%. For the same molecule, the “% visual injury (Obs)” value ([13]; compound 2 SC 10 g ae/ha) was 100%, the “% visual injury (Obs)” value ([14]; compound 2 SC 2.5 g ae/ha) was 20% and the “% visual injury (Obs)” value ([14]; compound 2 SC 5 g ae/ha) was 40%. For the same molecule, the “% visual injury, Obs” value ([15]; 5 g ae/ha) was 0%, the “% visual injury, Obs” value ([15]; 10 g ae/ha) was 0% and the “% visual injury, Obs” value ([16]; 5 g ae/ha) was 0%. The “% visual injury, Obs” value ([16]; 10 g ae/ha) was 0%, the “% visual injury, Obs” value ([17]; compound 2 (EC) 5 g ae/ha) was 28% and the “% visual injury, Obs” value ([17]; compound 2 (EC) 10 g ae/ha) was 53%. For the same molecule, the pest or weed control at 5 g/ha ([17]; Digitaria sanguinalis, post-emergence, 5 g ae/ha, read-out: % visual injury, Obs) was 28%, the pest or weed control at 10 g/ha ([17]; Digitaria sanguinalis, post-emergence, 10 g ae/ha, read-out: % visual injury, Obs) was 53% and the “% visual injury, Obs” value (winter wheat (TRZAW) [18]) was 3%. For the same molecule, the “% visual injury, Obs” value (maize (ZEAMX) [19]) was 3%, the “% visual injury, Obs” value ([20]; compound 2 (EC) 5 g ae/ha) was 30% and the “% visual injury, Obs” value ([20]; compound 2 (EC) 10 g ae/ha) was 55%. The plant injury at 5 g/ha [20, 30] was 30%, the plant injury at 10 g/ha [20, 30] was 55% and the pest or weed control at 5 g/ha ([21]; read-out: % visual injury, Obs, EPHHL, 5 g ae/ha) was 35%. For the same molecule, the pest or weed control at 10 g/ha ([21]; read-out: % visual injury, Obs, EPHHL, 10 g ae/ha) was 75%, the pest or weed control at 5 g/ha ([21]; read-out: % visual injury, Obs, EPHHL, compound 2 (EC) 5 g ae/ha) was 35% and the pest or weed control at 10 g/ha ([21]; read-out: % visual injury, Obs, EPHHL, compound 2 (EC) 10 g ae/ha) was 75%. For the same molecule, the “% visual injury, Obs” value ([22]; 5 g ae/ha) was 15%, the “% visual injury, Obs” value ([22]; 10 g ae/ha) was 40% and the “% visual injury, Obs” value ([22]; compound 2 (EC) 5 g ae/ha) was 15%. For the same molecule, the “% visual injury, Obs” value ([22]; compound 2 (EC) 10 g ae/ha) was 40%, the “% visual injury (Obs)” value ([22]; compound 2 SC 2.5 g ae/ha) was 13% and the “% visual injury (Obs)” value ([22]; compound 2 SC 5 g ae/ha) was 23%. It also gave a pest or weed control at 5 g/ha ([23]; read-out: % visual injury, Obs, IPOHE, 5 g ae/ha) of 10%, a pest or weed control at 10 g/ha ([23]; read-out: % visual injury, Obs, IPOHE, 10 g ae/ha) of 20% and a pest or weed control at 5 g/ha ([23]; read-out: % visual injury, Obs, IPOHE, compound 2 (EC) 5 g ae/ha) of 10%. It also gave a pest or weed control at 10 g/ha ([23]; read-out: % visual injury, Obs, IPOHE, compound 2 (EC) 10 g ae/ha) of 20%.
With `O=C(O)c1cc(I)cc(I)c1I` [2,3,5-TIBA, 2,3,5-triiodobenzoic acid, reference compound] the “% visual injury, Obs” value ([2]; 2,3,5-TIBA 140 g ai/ha) was 0%, the pest or weed control at 140 g/ha [5] was 0% and the “% visual injury, Obs” value [24] was 0%. For the same molecule, the “% visual injury, Obs” value ([7]; POLCO, 2,3,5-TIBA 140 g ai/ha) was 0%, the “% visual injury, Obs” value ([10]; BRSRR, 2,3,5-TIBA 140 g ai/ha) was 20% and the “% visual injury, Obs” value [25] was 0%. The “% visual injury, Obs” value [26] was 10%, the “% visual injury, Obs” value [27] was 0% and the plant injury at 140 g/ha [20, 30] was 5%. The “% visual injury, Obs” value ([22]; 2,3,5-TIBA 140 g ai/ha) was 0%, the “% visual injury, Obs” value (winter wheat (TRZAW) [28]) was 0% and the “% visual injury, Obs” value (maize (ZEAMX) [29]) was 0%. For the same molecule, the “% visual injury, Obs” value (common rice (ORYSA)) was 0%.
